Assay results reported in patent publication US9616129B2, “Compositions and methods for potentiating immune response, enhancing immunotherapy, and increasing vaccine potency” (Nitor Therapeutics, priority 2013, dated 2017).

How the values were obtained:
human TLR5 = target: T1, human TLR5 (Homo sapiens, UniProt O60602); assay: TLR ligand screening, NF-κB SEAP reporter in HEK293 cells expressing TLR5; type: cell-based; conditions: one concentration: NTR001 10 uM, Inosine 100 uM; FIG. 2
T1 construct: expressed in transfected cells; host or cells: HEK293
Experimental: (§1) TLR stimulation is tested by assessing NF-κB activation in HEK293 cells expressing a given TLR. The Secreted Embryonic Alkaline Phosphatase (SEAP) reporter is under the control of a promoter inducible by the transcription factor NF-κB. This reporter gene allows the monitoring of signaling through the TLR, based on the activation of NF-κB. The compounds are evaluated at one concentration and compared to control ligands. This step is performed in triplicate.

tetanus toxoid vaccine = assay: Tetanus toxoid vaccine efficacy study (adjuvant) in mice; type: in vivo; conditions: compared to vehicle treated group
Experimental: Tetanus toxoid (TT) was used to vaccinate mice thrice, two weeks apart. Mice were treated by oral administration of compounds NTR001 and NTR002 and serum was collected at various time points for antibody titer and interferon-g analysis. Mice in Groups 2-6 (Table 2) are vaccinated subcutaneously with 0.1 ml tetanus toxoid vaccine on DAYS 0, 14 and 28. Mice in Group 1 (Table 1) received no vaccine. Antibody titers for DAYS 38 are determined by ELISA using tetanus toxoid coated microtiter plates and anti-mouse conjugate. Sera from DAY 30 are assayed by ELISA for interferon-g.

human TLR7 = target: T2, human TLR7 (Homo sapiens, UniProt Q9NYK1); assay: TLR ligand screening, NF-κB SEAP reporter in HEK293 cells expressing TLR7; type: cell-based; conditions: one concentration: NTR001 10 uM, Inosine 100 uM; FIG. 2
T2 construct: expressed in transfected cells; host or cells: HEK293
T2 sequence (Q9NYK1 27-1049): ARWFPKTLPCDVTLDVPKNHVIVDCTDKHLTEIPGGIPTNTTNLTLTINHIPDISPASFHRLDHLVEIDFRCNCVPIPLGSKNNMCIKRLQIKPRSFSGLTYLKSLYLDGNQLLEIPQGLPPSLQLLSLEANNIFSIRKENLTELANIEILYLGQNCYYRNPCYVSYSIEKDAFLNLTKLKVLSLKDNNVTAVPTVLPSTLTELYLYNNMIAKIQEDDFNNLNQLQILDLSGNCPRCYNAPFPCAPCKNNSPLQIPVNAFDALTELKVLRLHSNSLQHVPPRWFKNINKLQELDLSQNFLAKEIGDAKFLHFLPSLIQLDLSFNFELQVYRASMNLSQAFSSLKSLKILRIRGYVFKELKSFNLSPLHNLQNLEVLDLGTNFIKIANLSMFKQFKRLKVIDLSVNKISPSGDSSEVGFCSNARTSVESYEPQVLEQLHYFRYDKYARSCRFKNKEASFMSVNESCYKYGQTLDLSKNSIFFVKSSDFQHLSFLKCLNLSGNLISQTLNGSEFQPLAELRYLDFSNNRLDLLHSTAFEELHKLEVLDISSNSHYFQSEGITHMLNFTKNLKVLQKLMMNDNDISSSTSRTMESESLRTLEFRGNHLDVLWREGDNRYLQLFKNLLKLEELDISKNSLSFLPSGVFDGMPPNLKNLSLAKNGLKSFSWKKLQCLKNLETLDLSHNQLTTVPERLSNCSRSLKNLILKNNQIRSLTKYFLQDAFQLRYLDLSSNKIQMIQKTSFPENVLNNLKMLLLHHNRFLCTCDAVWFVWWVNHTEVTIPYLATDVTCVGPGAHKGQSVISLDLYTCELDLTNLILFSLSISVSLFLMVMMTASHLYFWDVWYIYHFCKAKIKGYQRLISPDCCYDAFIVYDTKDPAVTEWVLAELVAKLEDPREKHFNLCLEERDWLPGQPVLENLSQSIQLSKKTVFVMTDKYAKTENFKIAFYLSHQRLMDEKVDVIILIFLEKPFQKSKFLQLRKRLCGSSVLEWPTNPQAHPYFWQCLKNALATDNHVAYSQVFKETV
Experimental: as §1

human TLR2 = target: T3, human TLR2 (Homo sapiens, UniProt O60603); assay: TLR ligand screening, NF-κB SEAP reporter in HEK293 cells expressing TLR2; type: cell-based; conditions: one concentration: Guanosine 100 uM, NTR001 10 uM, Inosine 100 uM; FIG. 2
T3 construct: expressed in transfected cells; host or cells: HEK293
Experimental: as §1

B16 tumors = assay: Syngeneic mouse melanoma model; type: in vivo, C57BL/6 mice
Experimental: Cancer cells were injected subcutaneously in right flank of each mouse, 1×10^4 cells in 0.1 ml PBS with 20% Matrigel. Treatment with the NTR001 was initiated on day 6 after injection of tumor cells. Tumor volume and survival were recorded every 3-4 days.

human TLR3 = target: T4, human TLR3 (Homo sapiens, UniProt O15455); assay: TLR ligand screening, NF-κB SEAP reporter in HEK293 cells expressing TLR3; type: cell-based; conditions: one concentration: NTR001 10 uM, Inosine 100 uM; FIG. 2
T4 construct: expressed in transfected cells; host or cells: HEK293
T4 sequence (O15455 24-904): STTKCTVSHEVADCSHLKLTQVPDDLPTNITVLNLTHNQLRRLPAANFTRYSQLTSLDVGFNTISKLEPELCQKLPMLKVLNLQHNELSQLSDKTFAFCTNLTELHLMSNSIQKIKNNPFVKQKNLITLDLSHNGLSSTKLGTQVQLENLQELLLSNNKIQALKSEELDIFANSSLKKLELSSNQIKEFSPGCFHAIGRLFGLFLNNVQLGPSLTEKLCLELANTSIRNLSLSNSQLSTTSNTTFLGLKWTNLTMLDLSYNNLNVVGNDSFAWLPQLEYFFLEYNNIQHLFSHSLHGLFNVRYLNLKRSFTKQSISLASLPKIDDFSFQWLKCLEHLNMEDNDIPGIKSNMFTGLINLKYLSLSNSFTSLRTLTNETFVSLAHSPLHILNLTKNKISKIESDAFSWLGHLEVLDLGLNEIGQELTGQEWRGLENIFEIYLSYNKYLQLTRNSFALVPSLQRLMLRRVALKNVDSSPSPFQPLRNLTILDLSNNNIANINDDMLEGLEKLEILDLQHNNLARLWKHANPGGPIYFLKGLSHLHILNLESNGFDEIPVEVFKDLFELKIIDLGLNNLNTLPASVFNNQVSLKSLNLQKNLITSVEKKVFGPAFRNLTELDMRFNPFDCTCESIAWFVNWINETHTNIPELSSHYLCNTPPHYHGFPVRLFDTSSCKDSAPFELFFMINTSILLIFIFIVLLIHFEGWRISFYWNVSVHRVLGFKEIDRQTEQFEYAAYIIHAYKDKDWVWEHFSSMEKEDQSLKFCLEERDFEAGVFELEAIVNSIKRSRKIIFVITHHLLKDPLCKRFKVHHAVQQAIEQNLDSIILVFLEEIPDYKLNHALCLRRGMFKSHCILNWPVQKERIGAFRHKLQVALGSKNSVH
Experimental: as §1

[1] = system: L. monocytogenes (ATCC Strain35152, hemolytic substrain); assay: Mouse model of L. monocytogenes infection; type: in vivo; conditions: Balb/c mice infected i.v. with 1×10^6 CFU; treatments per Table 3; FIGS. 7 and 9

T3 sequence (O60603 21-784): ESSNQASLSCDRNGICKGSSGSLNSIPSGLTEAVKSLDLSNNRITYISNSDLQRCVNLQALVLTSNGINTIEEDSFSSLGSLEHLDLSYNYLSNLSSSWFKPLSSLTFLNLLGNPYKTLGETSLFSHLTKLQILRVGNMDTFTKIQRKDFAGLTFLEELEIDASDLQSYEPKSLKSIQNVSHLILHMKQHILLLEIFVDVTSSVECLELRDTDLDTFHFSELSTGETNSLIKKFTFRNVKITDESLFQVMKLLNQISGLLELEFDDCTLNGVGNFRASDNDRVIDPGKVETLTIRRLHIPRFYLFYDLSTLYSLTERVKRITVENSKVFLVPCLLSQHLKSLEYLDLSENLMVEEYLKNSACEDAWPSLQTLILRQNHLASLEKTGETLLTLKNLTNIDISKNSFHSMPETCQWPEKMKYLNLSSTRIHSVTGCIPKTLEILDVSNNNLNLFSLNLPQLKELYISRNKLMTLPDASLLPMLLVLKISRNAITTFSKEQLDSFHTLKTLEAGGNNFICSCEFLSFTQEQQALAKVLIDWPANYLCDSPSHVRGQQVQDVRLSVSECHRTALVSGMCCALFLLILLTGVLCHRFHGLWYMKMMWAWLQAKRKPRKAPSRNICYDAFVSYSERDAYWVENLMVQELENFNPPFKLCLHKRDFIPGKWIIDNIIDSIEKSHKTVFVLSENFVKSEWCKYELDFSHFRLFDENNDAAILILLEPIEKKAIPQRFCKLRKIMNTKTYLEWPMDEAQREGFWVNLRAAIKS
T1 sequence (O60602 21-858): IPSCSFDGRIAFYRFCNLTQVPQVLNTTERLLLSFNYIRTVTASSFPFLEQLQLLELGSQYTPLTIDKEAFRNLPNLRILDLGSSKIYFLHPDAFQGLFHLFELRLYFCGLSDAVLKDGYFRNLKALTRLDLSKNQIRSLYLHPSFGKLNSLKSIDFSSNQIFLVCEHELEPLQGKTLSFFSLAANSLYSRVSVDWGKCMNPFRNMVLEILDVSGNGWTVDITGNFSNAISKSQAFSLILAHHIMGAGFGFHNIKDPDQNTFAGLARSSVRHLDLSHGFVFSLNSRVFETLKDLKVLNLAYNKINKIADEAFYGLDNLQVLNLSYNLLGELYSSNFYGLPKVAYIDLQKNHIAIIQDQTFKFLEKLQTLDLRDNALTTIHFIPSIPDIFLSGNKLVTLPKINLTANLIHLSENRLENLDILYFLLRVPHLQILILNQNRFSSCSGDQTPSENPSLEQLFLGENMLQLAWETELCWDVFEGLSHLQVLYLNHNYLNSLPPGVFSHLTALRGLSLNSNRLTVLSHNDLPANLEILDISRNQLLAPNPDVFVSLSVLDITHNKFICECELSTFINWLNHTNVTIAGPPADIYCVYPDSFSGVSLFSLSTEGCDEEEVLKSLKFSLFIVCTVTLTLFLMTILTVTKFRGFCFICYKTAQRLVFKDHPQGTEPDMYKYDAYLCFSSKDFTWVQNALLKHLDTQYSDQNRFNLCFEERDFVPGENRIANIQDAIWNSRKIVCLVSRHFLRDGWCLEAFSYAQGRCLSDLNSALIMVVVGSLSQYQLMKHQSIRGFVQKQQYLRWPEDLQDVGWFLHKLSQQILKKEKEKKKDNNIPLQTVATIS

SMILES	stimulatory effect on human TLR5 (NF-κB activation) (human TLR5)	serum interferon-g (tetanus toxoid vaccine; day 30, ELISA, high dose group 60 mg/kg p.o., FIG. 4)	serum tetanus toxoid antibody titers (tetanus toxoid vaccine; day 38, ELISA, p.o. 30 mg/kg (6 days of treatment) and 60 mg/kg (3 days of treatment), FIG. 3)	stimulatory effect on human TLR7 (NF-κB activation) (human TLR7)	stimulatory effect on human TLR2 (NF-κB activation) (human TLR2)	tumor volume (B16 tumors; B16 melanoma, C57BL/6 mice, treatment from day 6, FIG. 5)	survival (B16 tumors; NTR001 as single agent (30 mg/kg PO week on/off or 5 mg/kg drinking water), FIG. 6)	stimulatory effect on human TLR3 (NF-κB activation) (human TLR3)	weight loss [1]
O=c1[nH]cnc2c([C@@H]3N[C@H](CO)[C@@H](O)[C@H]3O)c[nH]c12 [NTR001, 7-[(2S,3S,4R,5R)-3,4-dihydroxy-5-(hydroxymethyl)-2-pyrrolidinyl]-1,5-dihydro-4H-pyrrolo[3,2-d]pyrimidin-4-one]	do not exhibit a stimulatory effect	elevated	significantly elevated	do not exhibit a stimulatory effect	do not exhibit a stimulatory effect	significant decrease	0-20%	do not exhibit a stimulatory effect	significant decrease
OC[C@H]1O[C@@H](n2cnc3c(O)ncnc32)[C@H](O)[C@@H]1O [Inosine]	do not exhibit a stimulatory effect	–	–	do not exhibit a stimulatory effect	do not exhibit a stimulatory effect	–	–	do not exhibit a stimulatory effect	–
